Experimental data from ChEMBL document CHEMBL1201862, “PubChem BioAssay data set” (2004).
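Briefly, cells in 96-well plates were exposed to five compound concentrations for 48 h, and endpoints were estimated by linear interpolation. GI50 = concentration required for 50% inhibition of growth.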 Activity calls are given as the source filed them. Cut-off read from the data, not from the text of the source: active = GI50 up to about 1.1 µM and inactive = higher.

Assays:
Test in all cases: inhibition of tumour cell growth, NCI panel, 48 h
K562 = test system: K562
HL-60 = test system: HL-60
NCI-H23 = test system: NCI-H23
NCI-H226 = test system: NCI-H226
KM-20L2 = test system: KM-20L2
LOX IMVI = test system: LOX IMVI
M14 = test system: M14
ACHN = test system: ACHN
SK-MEL-2 = test system: SK-MEL-2
SF-268 = test system: SF-268
HCT-15 = test system: HCT-15
SN12C = test system: SN12C
CAKI-1 = test system: CAKI-1
OVCAR-5 = test system: OVCAR-5
CCRF-CEM = test system: CCRF-CEM
KM12 = test system: KM12
UO-31 = test system: UO-31
RPMI-8226 = test system: RPMI-8226
BT-549 = test system: BT-549
PC-3 = test system: PC-3

Row | SMILES | GI50 (K562) | GI50 (HL-60) | GI50 (NCI-H23) | GI50 (NCI-H226) | GI50 (KM-20L2) | GI50 (LOX IMVI) | GI50 (M14) | GI50 (ACHN) | GI50 (SK-MEL-2) | GI50 (SF-268) | GI50 (HCT-15) [µM] | GI50 (SN12C) | GI50 (CAKI-1) | GI50 (OVCAR-5) | GI50 (CCRF-CEM) | GI50 (KM12) | GI50 (UO-31) | GI50 (RPMI-8226) | GI50 (BT-549) | GI50 (PC-3)
1 | COc1ccc(N2C(=O)C3CC(c4ccc(C)cc4)c4c([nH]c5ccccc45)C3C2=O)cc1 (configuration not stated) | > 63 µM (inactive) | 14.5 µM (inactive) | > 45.8 µM (inactive) | 9.53 µM (inactive) | 10.9 µM (inactive) | 6.92 µM (inactive) | 33.8 µM (inactive) | 21.6 µM (inactive) | > 75.2 µM (inactive) | 19.5 µM (inactive) | 8.61 | 8.87 µM (inactive) | > 96.2 µM (inactive) | > 72.3 µM (inactive) | 11 µM (inactive) | > 41.1 µM (inactive) | > 47.2 µM (inactive) |  |  | 
2 | COc1cc2oc(-c3ccccc3)cc(=O)c2c(O)c1C | > 100 µM (inactive) | > 100 µM (inactive) | > 100 µM (inactive) | > 100 µM (inactive) | > 100 µM (inactive) | > 100 µM (inactive) | > 100 µM (inactive) | > 100 µM (inactive) | > 100 µM (inactive) | > 100 µM (inactive) | > 100 | > 100 µM (inactive) | > 100 µM (inactive) | > 100 µM (inactive) | > 100 µM (inactive) | > 100 µM (inactive) | > 100 µM (inactive) | > 100 µM (inactive) |  | 
3 | N=C(N)NCCCCCCC(=O)NC(O)C(=O)NCCCCNCCCN (configuration not stated) | 551 µM (inactive) | > 750 µM (inactive) | 684 µM (inactive) | 687 µM (inactive) | 600 µM (inactive) | 605 µM (inactive) | > 750 µM (inactive) | > 750 µM (inactive) | 505 µM (inactive) | > 750 µM (inactive) | 656 | > 750 µM (inactive) |  | > 750 µM (inactive) | 515 µM (inactive) | 577 µM (inactive) | 590 µM (inactive) | 483 µM (inactive) | 372 µM (inactive) | > 750 µM (inactive)
4 | C=C(C)[C@@H]1CC[C@]2(C)CC[C@]3(C)[C@H](CC[C@@H]4[C@@]5(C)CC[C@H](O)C(C)(C)[C@@H]5CC[C@]43C)[C@@H]12 [LUPEOL] | > 46 µM (inactive) | 47.4 µM (inactive) | 61.5 µM (inactive) | > 50.4 µM (inactive) | > 100 µM (inactive) | 19.5 µM (inactive) | > 94.6 µM (inactive) | > 55.1 µM (inactive) | > 100 µM (inactive) | > 55.7 µM (inactive) | > 70.1 | 36.5 µM (inactive) | > 81.1 µM (inactive) | > 100 µM (inactive) | 22.1 µM (inactive) | > 67 µM (inactive) | > 47.8 µM (inactive) | 53.7 µM (inactive) | 15.6 µM (inactive) | 32.3 µM (inactive)
5 | CCCCOC(=O)C1C(c2ccc(Cl)cc2)NC(c2ccc(Cl)cc2)C(C(=O)OCCCC)S1(=O)=O (configuration not stated) | > 100 µM (inactive) | 8.83 µM (inactive) | > 100 µM (inactive) | > 100 µM (inactive) | > 100 µM (inactive) | > 100 µM (inactive) | > 100 µM (inactive) | > 100 µM (inactive) | > 100 µM (inactive) | > 100 µM (inactive) | > 100 | > 100 µM (inactive) | > 100 µM (inactive) | > 100 µM (inactive) | > 100 µM (inactive) | > 100 µM (inactive) | > 100 µM (inactive) | > 100 µM (inactive) |  | 
6 | CCc1ccccc1NC(=O)C1=C(C)NC(C)=C(C(=O)Nc2c(CC)cccc2CC)C1c1ccc2c(c1)OCO2 (configuration not stated) | 22.7 µM (inactive) | 23 µM (inactive) | 16.7 µM (inactive) | 19.1 µM (inactive) | 17.6 µM (inactive) | 16.9 µM (inactive) | 16.4 µM (inactive) | 20.5 µM (inactive) | 15.2 µM (inactive) | 20.3 µM (inactive) |  | 26 µM (inactive) | 19.5 µM (inactive) | 18.2 µM (inactive) | 19.1 µM (inactive) | 16.1 µM (inactive) | 16.2 µM (inactive) | 15.8 µM (inactive) |  | 
7 | CCOC(C/N=c1/nc(N(C)C)ss1)OCC | 0.354 µM (active) | 1.31 µM (inactive) | 33.5 µM (inactive) | 24.6 µM (inactive) | 27.7 µM (inactive) | 16.3 µM (inactive) | 16.9 µM (inactive) | 26.2 µM (inactive) | 13.8 µM (inactive) | 30.1 µM (inactive) | 25.8 | 19.2 µM (inactive) | 22.6 µM (inactive) | 19.5 µM (inactive) | 0.208 µM (active) | 4.61 µM (inactive) | 43.5 µM (inactive) | 1.16 µM (inactive) | 23.4 µM (inactive) | 14.3 µM (inactive)
8 | NCC(NC(=O)OCc1ccccc1)C(=O)O (configuration not stated) | > 50 µM (inactive) | > 50 µM (inactive) | > 50 µM (inactive) | > 50 µM (inactive) | > 50 µM (inactive) | > 50 µM (inactive) | > 50 µM (inactive) | > 50 µM (inactive) | > 50 µM (inactive) | > 50 µM (inactive) | > 50 | > 50 µM (inactive) | > 50 µM (inactive) | > 50 µM (inactive) | > 50 µM (inactive) | > 50 µM (inactive) | > 50 µM (inactive) | > 50 µM (inactive) |  | 
9 | C/C=C/C#CC#C/C=C/C=C/C(O)CCO (configuration not stated) | > 23.1 µM (inactive) | > 18.1 µM (inactive) | > 23.1 µM (inactive) | > 23.1 µM (inactive) | > 23.1 µM (inactive) | > 23.1 µM (inactive) | > 23.1 µM (inactive) | > 23.1 µM (inactive) | > 23.1 µM (inactive) | > 23.1 µM (inactive) | > 23.1 | > 23.1 µM (inactive) | > 23.1 µM (inactive) | > 23.1 µM (inactive) | > 23.1 µM (inactive) | > 23.1 µM (inactive) | > 23.1 µM (inactive) | > 23.1 µM (inactive) |  | 
10 | CCCCCCCCCCCCCCCC(=O)Nc1ccn(C2OC(CO)C(O)C2O)c(=O)n1 (configuration not stated) | 9.75 µM (inactive) | 2.77 µM (inactive) | 2.05 µM (inactive) | 30.5 µM (inactive) | 40.3 µM (inactive) | 5.25 µM (inactive) | 3.21 µM (inactive) | 3.08 µM (inactive) | > 100 µM (inactive) | 15.2 µM (inactive) | 17.7 | 31 µM (inactive) | 28.7 µM (inactive) | 45.4 µM (inactive) | 0.0308 µM (active) | 29.4 µM (inactive) | 3.4 µM (inactive) | 42.2 µM (inactive) | 33.7 µM (inactive) | 3.78 µM (inactive)
11 | CC(=O)Nc1ccc(C(=O)NN2C(=O)C(Cl)C2c2ccccc2O)cc1 (configuration not stated) | > 100 µM (inactive) | 84.7 µM (inactive) | 19.7 µM (inactive) | > 100 µM (inactive) | > 100 µM (inactive) | 13.2 µM (inactive) | 23.8 µM (inactive) | > 100 µM (inactive) | 15.7 µM (inactive) | 84.7 µM (inactive) | 3.36 | > 100 µM (inactive) | > 100 µM (inactive) | > 100 µM (inactive) | 4.9 µM (inactive) |  | 34.4 µM (inactive) |  |  | 
12 | COc1cc2c(c(OC)c1OC)-c1ccc(SC)c(=O)cc1[C@@H](NCc1ccc([N+](=O)[O-])cc1)CC2 | 0.00318 µM (active) | 0.00202 µM (active) | 0.00324 µM (active) | 0.00284 µM (active) | 0.00158 µM (active) | 0.00506 µM (active) | 0.00404 µM (active) | 0.00959 µM (active) | 0.0113 µM (active) | 0.00676 µM (active) | 0.00487 | 0.00738 µM (active) | 0.01 µM (active) | 0.0074 µM (active) | 0.00277 µM (active) | 0.0034 µM (active) | 0.406 µM (active) | 0.00349 µM (active) |  | 
13 | N=C1OC(c2ccc3c(c2)OCO3)C(NNS(=O)(=O)c2ccccc2)=C1O (configuration not stated) | > 100 µM (inactive) | > 100 µM (inactive) | 52.5 µM (inactive) | > 100 µM (inactive) | > 100 µM (inactive) | > 100 µM (inactive) | 46.6 µM (inactive) | > 100 µM (inactive) | 68.2 µM (inactive) | > 100 µM (inactive) | > 100 | > 100 µM (inactive) | > 100 µM (inactive) | > 100 µM (inactive) | 44.6 µM (inactive) | > 100 µM (inactive) | > 100 µM (inactive) | 87.1 µM (inactive) |  | 
